One may read the Ki as a measure of affinity in units of concentration, obtained from inhibition or displacement. Read a high Ki as a looser hold on the target.

In the test the target is human capsaicin receptor (VR1) (Homo sapiens, UniProt Q8NER1). Nature of the test: Capsaicin receptor binding assay ([3H]RTX competition, VR1-transfected HEK293 membranes).
human capsaicin receptor (VR1), sequence (Q8NER1 whole entry): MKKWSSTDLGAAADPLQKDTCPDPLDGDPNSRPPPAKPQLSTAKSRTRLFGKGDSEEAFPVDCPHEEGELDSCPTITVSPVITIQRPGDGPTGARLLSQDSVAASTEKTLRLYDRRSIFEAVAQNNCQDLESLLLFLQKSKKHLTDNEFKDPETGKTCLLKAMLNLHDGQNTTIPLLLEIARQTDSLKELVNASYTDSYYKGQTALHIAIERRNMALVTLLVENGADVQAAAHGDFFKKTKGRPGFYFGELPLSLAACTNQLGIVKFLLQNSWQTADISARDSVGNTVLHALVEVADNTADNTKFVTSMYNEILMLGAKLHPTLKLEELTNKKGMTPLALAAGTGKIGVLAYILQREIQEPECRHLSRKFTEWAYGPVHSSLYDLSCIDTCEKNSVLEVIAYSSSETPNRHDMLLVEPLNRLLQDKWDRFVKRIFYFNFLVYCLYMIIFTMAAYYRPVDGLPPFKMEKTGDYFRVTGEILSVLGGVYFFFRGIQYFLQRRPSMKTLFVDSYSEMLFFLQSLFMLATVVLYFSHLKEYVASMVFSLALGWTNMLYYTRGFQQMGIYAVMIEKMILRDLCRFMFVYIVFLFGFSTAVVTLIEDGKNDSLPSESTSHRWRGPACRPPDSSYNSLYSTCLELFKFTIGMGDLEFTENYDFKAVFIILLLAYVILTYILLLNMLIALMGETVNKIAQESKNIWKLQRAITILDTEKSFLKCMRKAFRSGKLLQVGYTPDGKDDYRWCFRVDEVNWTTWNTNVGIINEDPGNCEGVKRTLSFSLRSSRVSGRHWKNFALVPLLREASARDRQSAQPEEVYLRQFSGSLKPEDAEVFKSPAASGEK
Compound `O=C(NCCCN1CCOCC1)c1nc(Nc2ccc(C(F)(F)F)cc2)c2ccc(-c3ncccc3C(F)(F)F)nc2n1` [Compound 443, 4-(4-Trifluoromethyl-phenylamino)-7-(3-trifluoromethyl-pyridin-2-yl)-pyrido[2,3-d]pyrimidine-2-carboxylic acid (3-morpholin-4-yl-propyl)-amide] registered a Ki below 1000 nM.

As to `CC(CN(C)C)NC(=O)c1nc(Nc2ccc(C(F)(F)F)cc2)c2ccc(-c3ncccc3C(F)(F)F)nc2n1` (stereo not drawn) [Compound 444, 4-(4-Trifluoromethyl-phenylamino)-7-(3-trifluoromethyl-pyridin-2-yl)-pyrido[2,3-d]pyrimidine-2-carboxylic acid (2-dimethylamino-1-methyl-ethyl)-amide], the Ki is below 1000 nM.

In the case of `CN1C2CCC1CC(NC(=O)c1nc(Nc3ccc(C(F)(F)F)cc3)c3ccc(-c4ncccc4C(F)(F)F)nc3n1)C2` (stereo not drawn) [Compound 445, 4-(4-Trifluoromethyl-phenylamino)-7-(3-trifluoromethyl-pyridin-2-yl)-pyrido[2,3-d]pyrimidine-2-carboxylic acid (8-methyl-8-aza-bicyclo[3.2.1]oct-3-yl)-amide], the Ki is below 1000 nM.

`CCN(CC)CCCC(C)NC(=O)c1nc(Nc2ccc(C(F)(F)F)cc2)c2ccc(-c3ncccc3C(F)(F)F)nc2n1` (stereo not drawn) [Compound 446, 4-(4-Trifluoromethyl-phenylamino)-7-(3-trifluoromethyl-pyridin-2-yl)-pyrido[2,3-d]pyrimidine-2-carboxylic acid (4-diethylamino-1-methyl-butyl)-amide] registered an inhibition constant Ki below 1000 nM.

Regarding `CN1C(C)(C)CC(NC(=O)c2nc(Nc3ccc(C(F)(F)F)cc3)c3ccc(-c4ncccc4C(F)(F)F)nc3n2)CC1(C)C` [Compound 447, 4-(4-Trifluoromethyl-phenylamino)-7-(3-trifluoromethyl-pyridin-2-yl)-pyrido[2,3-d]pyrimidine-2-carboxylic acid (1,2,2,6,6-pentamethyl-piperidin-4-yl)-amide], the Ki is below 1000 nM.

Turning to `CN1CCC(NC(=O)c2nc(Nc3ccc(C(F)(F)F)cc3)c3ccc(-c4ncccc4C(F)(F)F)nc3n2)CC1` [Compound 448, 4-(4-Trifluoromethyl-phenylamino)-7-(3-trifluoromethyl-pyridin-2-yl)-pyrido[2,3-d]pyrimidine-2-carboxylic acid (1-methyl-piperidin-4-yl)-amide], the Ki is below 1000 nM.

`CNC(=O)c1nc(Nc2ccc(C(F)(F)F)cc2)c2ccc(-c3ncccc3C(F)(F)F)nc2n1` [Compound 449, 4-(4-Trifluoromethyl-phenylamino)-7-(3-trifluoromethyl-pyridin-2-yl)-pyrido[2,3-d]pyrimidine-2-carboxylic acid methylamide]: the Ki is below 1000 nM.

The compound `CCNC(=O)c1nc(Nc2ccc(C(F)(F)F)cc2)c2ccc(-c3ncccc3C(F)(F)F)nc2n1` [Compound 450, 4-(4-Trifluoromethyl-phenylamino)-7-(3-trifluoromethyl-pyridin-2-yl)-pyrido[2,3-d]pyrimidine-2-carboxylic acid ethylamide] showed a Ki below 1000 nM.

`C=CCNC(=O)c1nc(Nc2ccc(C(F)(F)F)cc2)c2ccc(-c3ncccc3C(F)(F)F)nc2n1` [Compound 451, 4-(4-Trifluoromethyl-phenylamino)-7-(3-trifluoromethyl-pyridin-2-yl)-pyrido[2,3-d]pyrimidine-2-carboxylic acid allylamide] gave a Ki below 1000 nM.

The compound `CCCNC(=O)c1nc(Nc2ccc(C(F)(F)F)cc2)c2ccc(-c3ncccc3C(F)(F)F)nc2n1` [Compound 452, 4-(4-Trifluoromethyl-phenylamino)-7-(3-trifluoromethyl-pyridin-2-yl)-pyrido[2,3-d]pyrimidine-2-carboxylic acid propylamide] gave a Ki below 1000 nM.

`O=C(NCC1CC1)c1nc(Nc2ccc(C(F)(F)F)cc2)c2ccc(-c3ncccc3C(F)(F)F)nc2n1` [Compound 453, 4-(4-Trifluoromethyl-phenylamino)-7-(3-trifluoromethyl-pyridin-2-yl)-pyrido[2,3-d]pyrimidine-2-carboxylic acid cyclopropylmethyl-amide]: the Ki was below 1000 nM.

Compound `CCOCCNC(=O)c1nc(Nc2ccc(C(F)(F)F)cc2)c2ccc(-c3ncccc3C(F)(F)F)nc2n1` [Compound 454, 4-(4-Trifluoromethyl-phenylamino)-7-(3-trifluoromethyl-pyridin-2-yl)-pyrido[2,3-d]pyrimidine-2-carboxylic acid (2-ethoxy-ethyl)-amide] returned a Ki below 1000 nM.

Consider `COCCNC(=O)c1nc(Nc2ccc(C(F)(F)F)cc2)c2ccc(-c3ncccc3C(F)(F)F)nc2n1` [Compound 455, 4-(4-Trifluoromethyl-phenylamino)-7-(3-trifluoromethyl-pyridin-2-yl)-pyrido[2,3-d]pyrimidine-2-carboxylic acid (2-methoxy-ethyl)-amide], for which the Ki was below 1000 nM.

In the case of `COCCCNC(=O)c1nc(Nc2ccc(C(F)(F)F)cc2)c2ccc(-c3ncccc3C(F)(F)F)nc2n1` [Compound 456, 4-(4-Trifluoromethyl-phenylamino)-7-(3-trifluoromethyl-pyridin-2-yl)-pyrido[2,3-d]pyrimidine-2-carboxylic acid (3-methoxy-propyl)-amide], the Ki was below 1000 nM.

As for `O=C(NCC1CCCO1)c1nc(Nc2ccc(C(F)(F)F)cc2)c2ccc(-c3ncccc3C(F)(F)F)nc2n1` (stereo not drawn) [Compound 457, 4-(4-Trifluoromethyl-phenylamino)-7-(3-trifluoromethyl-pyridin-2-yl)-pyrido[2,3-d]pyrimidine-2-carboxylic acid (tetrahydro-furan-2-ylmethyl)-amide], the Ki is below 1000 nM.

`CC(C)(C)CNC(=O)c1nc(Nc2ccc(C(F)(F)F)cc2)c2ccc(-c3ncccc3C(F)(F)F)nc2n1` [Compound 458, 4-(4-Trifluoromethyl-phenylamino)-7-(3-trifluoromethyl-pyridin-2-yl)-pyrido[2,3-d]pyrimidine-2-carboxylic acid (2,2-dimethyl-propyl)-amide] displayed a Ki below 1000 nM.

`O=C(c1nc(Nc2ccc(C(F)(F)F)cc2)c2ccc(-c3ncccc3C(F)(F)F)nc2n1)N1CCCC1` [Compound 459, Pyrrolidin-1-yl-[4-(4-trifluoromethyl-phenylamino)-7-(3-trifluoromethyl-pyridifl-2-yl)-pyrido[2,3-d]pyrimidin-2-yl]-methanone] showed a Ki below 1000 nM.

`O=C(c1nc(Nc2ccc(C(F)(F)F)cc2)c2ccc(-c3ncccc3C(F)(F)F)nc2n1)N1CCCCC1` [Compound 460, Piperidin-1-yl-[4-(4-trifluoromethyl-phenylamino)-7-(3-trifluorornethyl-pyridin-2-yl)-pyrido[2,3-d]pyrimidin-2-yl]-methanone] gave a Ki below 1000 nM.

`O=C(c1nc(Nc2ccc(C(F)(F)F)cc2)c2ccc(-c3ncccc3C(F)(F)F)nc2n1)N1CCOCC1` [Compound 461, Morpholin-4-yl-[4-(4-trifluoromethyl-phenylamino)-7-(3-trifluoromethyl-pyridin-2-yl)-pyrido[2,3-d]pyrimidin-2-yl]-methanone] displayed an inhibitory constant (Ki) below 1000 nM.

In the case of `CC1CCN(C(=O)c2nc(Nc3ccc(C(F)(F)F)cc3)c3ccc(-c4ncccc4C(F)(F)F)nc3n2)CC1` [Compound 462, (4-Methyl-piperidin-1-yl)-[4-(4-trifluoromethyl-phenylamino)-7-(3-trifluoromethyl-pyridin-2-yl)-pyrido[2,3-d]pyrimidin-2-yl]-methanone], the Ki is below 1000 nM.

With `O=C(c1nc(Nc2ccc(C(F)(F)F)cc2)c2ccc(-c3ncccc3C(F)(F)F)nc2n1)N1CCSCC1` [Compound 463, Thiomorpholin-4-yl-[4-(4-trifluoromethyl-phenylamino)-7-(3-trifluoromethyl-pyridin-2-yl)-pyrido[2,3-d]pyrimidin-2-yl]-methanone], the Ki was below 1000 nM.

On to `C=CCN(C)C(=O)c1nc(Nc2ccc(C(F)(F)F)cc2)c2ccc(-c3ncccc3C(F)(F)F)nc2n1` [Compound 464, 4-(4-Trifluoromethyl-phenylamino)-7-(3-trifluoromethyl-pyridin-2-yl)-pyrido[2,3-d]pyrimidine-2-carboxyiic acid allyl-methyl-amide], for which the Ki is below 1000 nM.

`C=CCN(CC=C)C(=O)c1nc(Nc2ccc(C(F)(F)F)cc2)c2ccc(-c3ncccc3C(F)(F)F)nc2n1` [Compound 465, 4-(4-Trifluoromethyl-phenylamino)-7-(3-trifluoromethyl-pyridin-2-yl)-pyrido[2,3-d]pyrimidine-2-carboxylic acid diallylamide] had a Ki below 1000 nM.

In turn, `CCCN(CCC)C(=O)c1nc(Nc2ccc(C(F)(F)F)cc2)c2ccc(-c3ncccc3C(F)(F)F)nc2n1` [Compound 466, 4-(4-Trifluoromethyl-phenylamino)-7-(3-trifluoromethyl-pyridin-2-yl)-pyrido[2,3-d]pyrimidine-2-carboxylic acid dipropylamide] displayed a Ki below 1000 nM.

Compound `CN(C)C(=O)c1nc(Nc2ccc(C(F)(F)F)cc2)c2ccc(-c3ncccc3C(F)(F)F)nc2n1` [Compound 467, 4-(4-Trifluoromethyl-phenylamino)-7-(3-trifluoromethyl-pyridin-2-yl)-pyrido[2,3-d]pyrimidine-2-carboxylic acid dimethylamide] displayed a Ki below 1000 nM.

Consider `CC1(C)CCCC(NC(=O)c2nc(Nc3ccc(C(F)(F)F)cc3)c3ccc(-c4ncccc4C(F)(F)F)nc3n2)C1` (stereo not drawn) [Compound 468, 4-(4-Trifluoromethyl-phenylamino)-7-(3-trifluoromethyl-pyridin-2-yl)-pyrido[2,3-d]pyrimidine-2-carboxylic acid (3,3-dimethyl-cyclohexyl)-amide], for which the Ki was below 1000 nM.

Consider `COCCN(CCOC)C(=O)c1nc(Nc2ccc(C(F)(F)F)cc2)c2ccc(-c3ncccc3C(F)(F)F)nc2n1` [Compound 469, 4-(4-Trifluoromethyl-phenylamino)-7-(3-trifluoromethyl-pyridin-2-yl)-pyrido[2,3-d]pyrimidine-2-carboxylic acid bis-(2-methoxy-ethyl)-amide], for which the Ki was below 1000 nM.

These data come from patent US20040156869A1, “2-substituted quinazolin-4-ylamine analogues” (Neurogen Corporation, priority 2002, published 2004).
